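Protocol summary: plate cells (96-well), add compound at 5 concentrations, incubate 48 h, interpolate endpoints linearly. The concentration for full growth arrest is given as TGI.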
Key:
Assay in all cases: inhibition of tumour cell growth, NCI panel, 48 h
[1] = system: 786-0 renal
[2] = system: A549 NSCLC
[3] = system: ACHN renal
[4] = system: CAKI-1 renal
[5] = system: CCRF-CEM leukemia
[6] = system: COLO 205 colon
[7] = system: DLD-1 colon
[8] = system: DMS 114 small cell lung
[9] = system: DMS 273 small cell lung
[10] = system: EKVX NSCLC
[11] = system: HCC-2998 colon
[12] = system: HCT-116 colon
[13] = system: HCT-15 colon
[14] = system: HL-60(TB) leukemia
[15] = system: HOP-18 NSCLC
[16] = system: HOP-62 NSCLC
[17] = system: HOP-92 NSCLC
[18] = system: HT29 colon
[19] = system: IGROV1 ovarian
[20] = system: K-562 leukemia
[21] = system: KM12 colon
[22] = system: KM20L2 colon
[23] = system: LOX IMVI melanoma
[24] = system: LXFL 529 NSCLC
[25] = system: M14 melanoma
[26] = system: M19-MEL melanoma
[27] = system: MALME-3M melanoma
[28] = system: MOLT-4 leukemia
[29] = system: NCI-H226 lung
[30] = system: NCI-H23 lung
[31] = system: NCI-H460 lung
[32] = system: NCI-H522 lung
[33] = system: OVCAR-3 ovarian
[34] = system: OVCAR-5 ovarian
[35] = system: OVCAR-8 ovarian
[36] = system: RPMI-8226 leukemia
[37] = system: RXF 393 renal
[38] = system: SF-268 CNS
[39] = system: SF-295 CNS
[40] = system: SF-539 CNS
[41] = system: SK-MEL-2 melanoma
[42] = system: SK-MEL-28 melanoma
[43] = system: SK-MEL-5 melanoma
[44] = system: SK-OV-3 ovarian
[45] = system: SN12C renal
[46] = system: SNB-19 CNS
[47] = system: SNB-75 CNS
[48] = system: SNB-78 CNS
[49] = system: SR leukemia
[50] = system: SW-620 colon
[51] = system: TK-10 renal
[52] = system: U251 CNS
[53] = system: UACC-257 melanoma
[54] = system: UACC-62 melanoma
[55] = system: UO-31 renal
[56] = system: XF 498 CNS
[57] = system: A498 renal
[58] = system: OVCAR-4 ovarian
[59] = system: RXF-631 renal

Measured: TGI

CN(CCO)c1nc(=O)c2c(n1C1OC(CO)C(O)C(O)C1O)CCCC2 (centres undefined)
not listed: [57] | [58] | [59]
> 100 µM: all other assays above

CCCCCCCC(=O)OC(COC(=O)Cc1ccccc1)COC(=O)C(C)(C)C (centres undefined)
not listed: [10] | [18] | [21] | [32] | [37] | [40] | [41] | [47] | [48] | [53] | [56]
> 100 µM: all other assays above
